≈ marks a conversion by molar mass, not a printed value. Where “and” joins values, the source holds several entries; their conditions need not be identical. Equal values may be shown once. Where a name gives a salt, the structure may show the parent alone. Values belong to the compound of their own block, whether it stands above or below them.
Columns and labels:
[1] = test system: MCF-7 (estrogen receptor positive breast cancer); experiment: In vitro anticancer assay (SRB), MCF-7; type: cell-based, human
Protocol: (§1) All stock cultures were grown in T-25 flasks. Freshly trypsinized cell suspensions were seeded in 96-well microtiter plates at densities of 1500-7500 cells per well with compounds added from DMSO-diluted stock. After 3 days in culture, attached cells were fixed with cold 50% trichloroacetic acid and then stained with 0.4% sulforhodamine B (SRB). The absorbency at 562 nm was measured using a microplate reader after solubilizing the bound dye.
as §1, with “Biological assay. All” for “All”, “cultures are” for “cultures were”, “96-well microtitre” for “96-well microtiter”

[2] = test system: MDA-MB-231 (estrogen receptor negative breast cancer); experiment: In vitro anticancer assay (SRB), MDA-MB-231; type: cell-based, human
Protocol: as §1
as §1, with “Biological assay. All” for “All”, “cultures are” for “cultures were”, “96-well microtitre” for “96-well microtiter”

[3] = test system: ZR-75-1 (estrogen receptor positive breast cancer); experiment: In vitro anticancer assay (SRB), ZR-75-1; type: cell-based, human; conditions: concentration that reduces cell growth by 50%, 3 days in culture
Protocol: as §1
as §1, with “Biological assay. All” for “All”, “cultures are” for “cultures were”, “96-well microtitre” for “96-well microtiter”

[4] = test system: HS 587-T (estrogen receptor negative breast cancer); experiment: In vitro anticancer assay (SRB), HS 587-T; type: cell-based, human; conditions: concentration that reduces cell growth by 50%, 3 days in culture
Protocol: as §1
as §1, with “Biological assay. All” for “All”, “cultures are” for “cultures were”, “96-well microtitre” for “96-well microtiter”

[5] = test system: SK-BR-3 (HER-2-overexpressing breast cancer); experiment: In vitro anticancer assay (SRB), SK-BR-3; type: cell-based, human
Protocol: (§2) In Vitro Anticancer Assay (Nakanishi, Y. et al., J. Med. Chem. 2003, 46, 3185). All stock cultures were grown in T-25 flasks. Freshly trypsinized cell suspensions were seeded in 96-well microtiter plates at densities of 1500-7500 cells per well with compounds added from DMSO-diluted stock. After 3 days in culture, attached cells were fixed with cold 50% trichloroacetic acid and then stained with 0.4% sulforhodamine B (SRB). The absorbency at 562 nm was measured using a microplate reader after solubilizing the bound dye. The mean ED50 is the concentration of agent that reduces cell growth by 50% under the experimental conditions and is the average from at least three independent determinations that were reproducible and statistically significant (FIG. 2). The following human tumor cell lines were used in the assay: A549 (non small cell lung cancer), MCF-7 (estrogen receptor positive breast cancer), ZR-75-1 (estrogen receptor positive breast cancer), MDA-MB-231 (estrogen receptor negative breast cancer), HS 587-T (estrogen receptor negative breast cancer), SK− BR-3 (HER-2-overexpressing breast cancer), A431 (EGFRoverexpressing skin cancer), LN-CaP (AR-dependent prostate cancer), SW620 (colon cancer), PC-3 (prostate cancer), KB (nasopharyngeal carcinoma), KB-VIN (vincristine-resistant KB subline). All cell lines were obtained from the Lineberger Comprehensive Cancer Center (UNC-CH) or from ATCC (Rockville, Md.) and were cultured in RPMI-1640 medium supplemented with 25 mMHEPES, 0.25% sodium bicarbonate, 10% fetal bovine serum, and 100 μg/mL kanamycin.
(§3) Biological assay. All stock cultures are grown in T-25 flasks. Freshly trypsinized cell suspensions were seeded in 96-well microtitre plates at densities of 1500-7500 cells per well with compounds added from DMSO-diluted stock. After 3 days in culture, attached cells were fixed with cold 50% trichloroacetic acid and then stained with 0.4% sulforhodamine B (SRB). The absorbency at 562 nm was measured using a microplate reader after solubilizing the bound dye. The mean ED50 is the concentration of agent that reduces cell growth by 50% under the experimental conditions and is the average from at least three independent determinations that were reproducible and statistically significant. The following human tumor cell lines were used in the assay: A549 (non-small cell lung cancer), MCF-7 (estrogen receptor positive breast cancer), ZR-75-1 (estrogen receptor positive breast cancer), MDA MB-231 (estrogen receptor negative breast cancer), HS 587-T (estrogen receptor negative breast cancer), SK-BR-3 (estrogen receptor negative, HER-2 over-expressing breast cancer), A431 (EGFR over-expressing skin cancer), LN-CaP (AR-dependent prostate cancer), SW620 (colon cancer), PC-3 (prostate cancer), KB (nasopharyngeal carcinoma), KB-VIN (Vincristine resistant KB subline). All cell lines were obtained from the Lineberg Cancer Center (UNC-CH) or from ATCC (Rockville, Md.) and were cultured in RPMI-1640 medium supplemented with 25 mM HEPES, 0.25% sodium bicarbonate, 10% fetal bovine serum, and 100 μg/mL kanamycin.

[6] = test system: A431 (EGFR over-expressing skin cancer); experiment: In vitro anticancer assay (SRB), A431; type: cell-based, human
Protocol: as §2, §3

[7] = test system: LN-CaP (AR-dependent prostate cancer); experiment: In vitro anticancer assay (SRB), LN-CaP; type: cell-based, human; conditions: for ED50, LN-CaP: concentration that reduces cell growth by 50%, 3 days in culture, SRB
Protocol: as §2
as §1, with “Biological assay. All” for “All”, “cultures are” for “cultures were”, “96-well microtitre” for “96-well microtiter”, “dye. The mean ED50 is the concentration of agent that reduces cell growth by 50% under the experimental conditions and is the average from at least three independent determinations that were reproducible and statistically significant. […]” for “dye.”

SW620 (colon cancer) = experiment: In vitro anticancer assay (SRB), SW620; type: cell-based, human
Protocol: as §2, §3

PC-3 (prostate cancer) = experiment: In vitro anticancer assay (SRB), PC-3; type: cell-based, human; conditions: concentration that reduces cell growth by 50%, 3 days in culture
Protocol: as §1, with “In Vitro Anticancer Assay (Nakanishi, Y. et al., J. Med. Chem. 2003, 46, 3185). All” for “All”, “dye. The mean ED50 is the concentration of agent that reduces cell growth by 50% under the experimental conditions and is the average from at least three independent determinations that were reproducible and statistically significant (FIG. 2). […]” for “dye.”
(§4) Biological assay. […] The absorbency at 562 nm was measured using a microplate reader after solubilizing the bound dye. […]

[8] = test system: KB (nasopharyngeal carcinoma); experiment: In vitro anticancer assay (SRB), KB; type: cell-based, human
Protocol: as §2, §3

[9] = test system: KB-VIN (vincristine-resistant KB subline); experiment: In vitro anticancer assay (SRB), KB-VIN; type: cell-based, human; conditions: for ED50, KB-VIN: concentration that reduces cell growth by 50%, 3 days in culture, SRB
Protocol: as §2
as §1, with “Biological assay. All” for “All”, “cultures are” for “cultures were”, “96-well microtitre” for “96-well microtiter”, “dye. […]” for “dye.”

[10] = test system: A549 (non small cell lung cancer); experiment: In vitro anticancer assay (SRB), A549; type: cell-based, human
Protocol: as §1, with “In Vitro Anticancer Assay (Nakanishi, Y. et al., J. Med. Chem. 2003, 46, 3185). All” for “All”, “dye. The mean ED50 is the concentration of agent that reduces cell growth by 50% under the experimental conditions and is the average from at least three independent determinations that were reproducible and statistically significant (FIG. 2). […]” for “dye.”
as §4

[11] = test system: several human cancer cell lines; experiment: Cytotoxic activity against several human tumor cell lines (panel, overall statements); type: cell-based; conditions: at concentrations up to 10 μg/mL
Protocol: as §2
as §1, with “Biological assay. All” for “All”, “cultures are” for “cultures were”, “96-well microtitre” for “96-well microtiter”, “dye. […]” for “dye.”

[12] = test system: ER+ human breast cancer (MCF-7 and ZR-75-1); experiment: Comparison of potency and selectivity against ER+ breast cancer cell lines in vitro; type: cell-based
Protocol: as §2
as §1, with “Biological assay. All” for “All”, “cultures are” for “cultures were”, “96-well microtitre” for “96-well microtiter”, “dye. The mean ED50 is the concentration of agent that reduces cell growth by 50% under the experimental conditions and is the average from at least three independent determinations that were reproducible and statistically significant. […]” for “dye.”

[13] = concentration that reduces cell growth by 50%, 3 days in culture, SRB
[14] = concentration that reduces cell growth by 50%, 3 days in culture, SRB, listed as Neo-tashinlactone (1)
[15] = against ER+ (ER+ and HER-2++) breast cancer in vitro
[16] = concentration that reduces cell growth by 50%, 3 days in culture, SRB, listed as Tamoxifen citrate

- Percent inhibition at the test concentration (bracketed value), MCF-7 ([1]; at 2.5 μg/mL (Table 1)): 57%
- ED50, MCF-7 (ER+) [1, 13]: 0.6 mg/L and 0.60 mg/L
- ED50, MCF-7 (ER+) [1, 14]: < 2.5 mg/L
- concentration at which active against MCF-7 ([1]; first screen, Example 1): 0.6˜1.2 μg/mL
- Percent inhibition at the test concentration (bracketed value), MDA-MB-231 ([2]; at 20 μg/mL (Table 1)): 17%
- ED50, MDA-MB-231 (ER−) [2, 13]: 10 mg/L and 10.0 mg/L
- ED50, MDA-MB-231 (ER−) [2, 14]: > 20 mg/L
- ED50, ZR-75-1 (ER+) [3]: 0.25 mg/L (≈ 0.946 µM)
- ED50, HS 587-T (ER−) ([4]; printed HS587-1 in Table 4): 16 mg/L and 16.0 mg/L
Structure (SMILES): Cc1cccc2c1ccc1c3occ(C)c3c(=O)oc21 [Compound 1, Neo-tanshinlactone]
- activity against SK-BR-3 (in words) ([5]; HER-2-overexpressing breast cancer cell line): active
- ED50, SK-BR-3 (ER−, HER2+) [5, 13]: 0.2 mg/L and 0.18 mg/L
- fold more sensitive, SK-BR-3 versus MCF-7 ([5]; ratio of sensitivity of the two cell lines): 3 fold
- activity against A431 (in words) ([6]; EGFR overexpressing skin cancer cell line): essentially inactive
- Percent inhibition at the test concentration (bracketed value), A431 ([6]; at 10 μg/mL (Table 2)): 35%
- ED50, A431 [6, 13]: > 10 mg/L
- activity against LN-CaP (in words) ([7]; AR-dependent prostate cancer cell line): essentially inactive
- Percent inhibition at the test concentration (bracketed value), LN-CaP ([7]; at 10 μg/mL (Table 2)): 28-36%
- ED50, LN-CaP [7]: > 10 mg/L
- Percent inhibition at the test concentration (bracketed value), SW620 (SW620 (colon cancer); at 10 μg/mL (Table 2)): 22%
- ED50, SW620 (SW620 (colon cancer); [13]): > 10 mg/L
- ED50, PC-3 (PC-3 (prostate cancer)): 10 mg/L (≈ 37.8 µM)
- Percent inhibition at the test concentration (bracketed value), KB ([8]; at 10 μg/mL (Table 2)): 18%
- ED50, KB [8, 13]: > 10 mg/L
- Percent inhibition at the test concentration (bracketed value), KB-VIN ([9]; at 10 μg/mL (Table 2)): 9%
- ED50, KB-VIN [9]: > 10 mg/L
- Percent inhibition at the test concentration (bracketed value), A549 ([10]; at 20 μg/mL (Table 1)): 10%
- ED50, A549 [10, 13]: > 20 mg/L
- activity against other cell lines in the panel (in words) [11]: insignificant activity
- fold more potent than tamoxifen citrate [12, 15]: 10 fold
- fold more selective than tamoxifen citrate [12, 15]: 20 fold
- times better activity than compound 2a and tamoxifen ([12]; against ER+ cell lines): 10 times

Structure (SMILES): CC/C(=C(\c1ccccc1)c1ccc(OCCN(C)C)cc1)c1ccccc1 [TAM, tamoxifen citrate, reference compound]
- IC50 ([1]; Homo sapiens, MCF7, 72 h, concentration that reduces cell growth by 50%, 3 days in culture, SRB, read-out: ED50, MCF-7 (ER+)): 5 mg/L
- ED50, MCF-7 (ER+) [1, 13]: 5.0 mg/L
- ED50, MCF-7 (ER+) [1, 16]: 5.0 mg/L
- IC50 ([2]; Homo sapiens, MDA-MB-231, 72 h, concentration that reduces cell growth by 50%, 3 days in culture, SRB, read-out: ED50, MDA-MB-231 (ER−)): 8 mg/L
- ED50, MDA-MB-231 (ER−) [2, 16]: 7.0 mg/L
- IC50 ([3]; Homo sapiens, ZR-75-1, 72 h, read-out: ED50, ZR-75-1 (ER+)): 5 mg/L
- ED50, ZR-75-1 (ER+) ([3]; listed as Tamoxifen citrate): 3.6 mg/L
- ED50, HS 587-T (ER−) ([4]; printed HS587-1 in Table 4): 9 mg/L and 7.0 mg/L
- ED50, HS 587-T (ER−) ([4]; printed HS587-1 in Table 4, listed as Tamoxifen citrate): 8.5 mg/L
- IC50 ([5]; Homo sapiens, SK-BR-3, 72 h, concentration that reduces cell growth by 50%, 3 days in culture, SRB, read-out: ED50, SK-BR-3 (ER−, HER2+)): 5 mg/L
- ED50, SK-BR-3 (ER−, HER2+) [5, 13]: 5.0 mg/L
- IC50 ([6]; Homo sapiens, A-431, 72 h, concentration that reduces cell growth by 50%, 3 days in culture, SRB, read-out: ED50, A431): 7 mg/L
- ED50, A431 [6, 13]: 7.0 mg/L
- ED50, LN-CaP [7]: 6 mg/L
- IC50 (SW620 (colon cancer); Homo sapiens, SW-620, 72 h, concentration that reduces cell growth by 50%, 3 days in culture, SRB, read-out: ED50, SW620): 4 mg/L
- ED50, SW620 (SW620 (colon cancer); [13]): 4.0 mg/L
- ED50, PC-3 (PC-3 (prostate cancer)): 10 mg/L
- IC50 ([8]; Homo sapiens, 72 h, concentration that reduces cell growth by 50%, 3 days in culture, SRB, read-out: ED50, KB): 9 mg/L
- ED50, KB [8, 13]: 9.0 mg/L
- ED50, KB-VIN [9]: 9 mg/L

Reference: patent publication US7795299B2, “Neo-tanshinlactone and analogs as potent and selective anti-breast cancer agents” (The University of North Carolina at Chapel Hill, priority 2004, dated 2010)
